“And” between values parts separate entries of the source, which are not always exact repeats. Equal entries are not always repeated.
Test system: 287954-098-R-J1 tumor spheroid viability
Assay: Anticancer human tumor 287954-098-R-J1 patient-derived Ewing sarcoma cell line growth inhibition
Details: spheroids with HUVEC and MSC; for viability, T/C: stronger effect = lower value
How it was run: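 Complex spheroids of malignant cells with endothelial cells and mesenchymal stem cells; agents alone or combined, from near clinical Cmax (or 10 microM if unknown) down in half-log steps, 0.25% DMSO final.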
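Further: spheroids exposed to compound for 7 days before viability readout.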
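Wherever viability, T/C is given: luminescent signal taken as surrogate of viable cell content; 100% = DMSO vehicle control viability and lower means growth inhibition.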

Cc1sc2c(c1C)C(c1ccc(Cl)cc1)=NC(CC(=O)Nc1ccc(O)cc1)c1nnc(C)n1-2 (configuration not stated) + Cn1nnc2c(C(N)=O)ncn2c1=O showed an IC50 (curve of first compound, second compound 1 µM) of 0.954 µM, an IC50 (curve of first compound, second compound 3.16 µM) of 0.624 µM and an IC50 (curve of first compound, second compound 10 µM) of 1.11 µM. The IC50 (curve of first compound, second compound 31.6 µM) was 0.624 µM, the IC50 (curve of first compound, second compound 100 µM) was 0.181 µM and the viability, T/C (second compound 1 µM, first compound 0.00949 µM) was 112%. For the same molecule, the viability, T/C (second compound 1 µM, first compound 0.03 µM) was 117%, the viability, T/C (second compound 1 µM, first compound 0.0949 µM) was 111% and the viability, T/C (second compound 1 µM, first compound 0.3 µM) was 101%. It also gave a viability, T/C (second compound 1 µM, first compound 0.949 µM) of 50.2%, a viability, T/C (second compound 1 µM, first compound 3 µM) of 4.34% and a viability, T/C (second compound 3.16 µM, first compound 0.00949 µM) of 110%. The viability, T/C (second compound 3.16 µM, first compound 0.03 µM) was 113%, the viability, T/C (second compound 3.16 µM, first compound 0.0949 µM) was 123% and the viability, T/C (second compound 3.16 µM, first compound 0.3 µM) was 91.9%. For the same molecule, the viability, T/C (second compound 3.16 µM, first compound 0.949 µM) was 25.9%, the viability, T/C (second compound 3.16 µM, first compound 3 µM) was 2.69% and the viability, T/C (second compound 10 µM, first compound 0.00949 µM) was 113%. For the same molecule, the viability, T/C (second compound 10 µM, first compound 0.03 µM) was 122%, the viability, T/C (second compound 10 µM, first compound 0.0949 µM) was 122% and the viability, T/C (second compound 10 µM, first compound 0.3 µM) was 100%. It also gave a viability, T/C (second compound 10 µM, first compound 0.949 µM) of 58.3%, a viability, T/C (second compound 10 µM, first compound 3 µM) of 2.44% and a viability, T/C (second compound 31.6 µM, first compound 0.00949 µM) of 114%. It also gave a viability, T/C (second compound 31.6 µM, first compound 0.03 µM) of 130%, a viability, T/C (second compound 31.6 µM, first compound 0.0949 µM) of 121% and a viability, T/C (second compound 31.6 µM, first compound 0.3 µM) of 113%. The viability, T/C (second compound 31.6 µM, first compound 0.949 µM) was 13.7%, the viability, T/C (second compound 31.6 µM, first compound 3 µM) was 1.92% and the viability, T/C (second compound 100 µM, first compound 0.00949 µM) was 105%. For the same molecule, the viability, T/C (second compound 100 µM, first compound 0.03 µM) was 115%, the viability, T/C (second compound 100 µM, first compound 0.0949 µM) was 98.2% and the viability, T/C (second compound 100 µM, first compound 0.3 µM) was 12.2%. For the same molecule, the viability, T/C (second compound 100 µM, first compound 0.949 µM) was 2.46% and the viability, T/C (second compound 100 µM, first compound 3 µM) was 2.14%.
With [2H]c1nc(C)nc([2H])c1-c1cc(NC[C@@H](C)c2cccc3c(C(=O)NC)ccnc23)ncn1 the viability, T/C (compound 0.0316 µM) was 96.4% and 109% and 110%, the viability, T/C (compound 0.1 µM) was 101% and 107% and 112% and the viability, T/C (compound 0.316 µM) was 95.5% and 108% and 106%. The viability, T/C (compound 1 µM) was 104% and 102% and 108%, the viability, T/C (compound 3.16 µM) was 98.3% and 96.3% and 100% and the viability, T/C (compound 10 µM) was 101% and 103% and 109%. The IC50 (curve of compound) was over 10 µM.
Cc1cc(C)c(CNC(=O)c2cc(-c3ccc(CN4CCOCC4)cc3)cc3c2cnn3C2CCCC2)c(=O)[nH]1 + COc1cc2c(cc1O)CCNC21CSC2c3c(OC(C)=O)c(C)c4c(c3C(COC1=O)N1C(O)C3Cc5cc(C)c(OC)c(O)c5C(C21)N3C)OCO4 gave an IC50 (curve of first compound, second compound 30 pM) of over 10 µM, an IC50 (curve of first compound, second compound 94.9 pM) of over 10 µM and an IC50 (curve of first compound, second compound 0.0003 µM) of over 10 µM. For the same molecule, the IC50 (curve of first compound, second compound 0.000949 µM) was under 0.0316 µM, the IC50 (curve of first compound, second compound 0.003 µM) was under 0.0316 µM and the viability, T/C (second compound 30 pM, first compound 0.0316 µM) was 106%. For the same molecule, the viability, T/C (second compound 30 pM, first compound 0.1 µM) was 108%, the viability, T/C (second compound 30 pM, first compound 0.316 µM) was 106% and the viability, T/C (second compound 30 pM, first compound 1 µM) was 107%. For the same molecule, the viability, T/C (second compound 30 pM, first compound 3.16 µM) was 117%, the viability, T/C (second compound 30 pM, first compound 10 µM) was 116% and the viability, T/C (second compound 94.9 pM, first compound 0.0316 µM) was 106%. For the same molecule, the viability, T/C (second compound 94.9 pM, first compound 0.1 µM) was 105%, the viability, T/C (second compound 94.9 pM, first compound 0.316 µM) was 105% and the viability, T/C (second compound 94.9 pM, first compound 1 µM) was 109%. The viability, T/C (second compound 94.9 pM, first compound 3.16 µM) was 108%, the viability, T/C (second compound 94.9 pM, first compound 10 µM) was 117% and the viability, T/C (second compound 0.0003 µM, first compound 0.0316 µM) was 96.7%. It also gave a viability, T/C (second compound 0.0003 µM, first compound 0.1 µM) of 109%, a viability, T/C (second compound 0.0003 µM, first compound 0.316 µM) of 108% and a viability, T/C (second compound 0.0003 µM, first compound 1 µM) of 113%. It also gave a viability, T/C (second compound 0.0003 µM, first compound 3.16 µM) of 103%, a viability, T/C (second compound 0.0003 µM, first compound 10 µM) of 102% and a viability, T/C (second compound 0.000949 µM, first compound 0.0316 µM) of 0.27%. For the same molecule, the viability, T/C (second compound 0.000949 µM, first compound 0.1 µM) was 0.28%, the viability, T/C (second compound 0.000949 µM, first compound 0.316 µM) was 0.23% and the viability, T/C (second compound 0.000949 µM, first compound 1 µM) was 0.2%. For the same molecule, the viability, T/C (second compound 0.000949 µM, first compound 3.16 µM) was 0.18%, the viability, T/C (second compound 0.000949 µM, first compound 10 µM) was 0.25% and the viability, T/C (second compound 0.003 µM, first compound 0.0316 µM) was 0.2%. It also gave a viability, T/C (second compound 0.003 µM, first compound 0.1 µM) of 0.23%, a viability, T/C (second compound 0.003 µM, first compound 0.316 µM) of 0.15% and a viability, T/C (second compound 0.003 µM, first compound 1 µM) of 0.12%. For the same molecule, the viability, T/C (second compound 0.003 µM, first compound 3.16 µM) was 0.12% and the viability, T/C (second compound 0.003 µM, first compound 10 µM) was 0.22%.

From PubChem BioAssay AID1845194 (Molecular Pharmacology Branch, DTP, NCI, 2023)
